Molecular target: human TrkA receptor (Homo sapiens (Human), UniProt P04629)
Experiment: DiscoverX PathHunter TrkA functional assay (NGF-stimulated U2OS cells)
Assay type: cell-based
Settings: U2OS cells expressing human TrkA-PK, Shc1-EA and p75NTR; compound 1 h, then NGF at ~80% of maximal response for 3 h; luminescence
Experimental: TrkA functional activity was measured using a DiscoverX PathHunter assay. In this assay, U2OS cells express the human TrkA receptor as a fusion with the weakly complementing fragment of B-galactosidase, which DiscoverX calls “Prolink (PK)”; additionally, Shcl is fused with a larger fragment, which is called “Enzyme Acceptor (EA)”. Activation of the TrkA receptor, upon NGF addition, results in the kinase domain being phosphorylated, resulting in subsequent recruitment of Shcl-EA protein. That recruitment results in an active B-galactosidase enzyme that is detected by addition of a chemiluminescent substrate. The human p75^NTR protein was also expressed as a co-receptor for NGF.
All reagents were purchased from DiscoverX, except for the receptor agonists (NGF, BDNF, NT3) which were purchased from Peprotech. Cells were expanded and frozen into cryovials, and stored in the vapor phase of liquid nitrogen, and thawed immediately before use. Thawed cells were added to a 384-well plate at 7500 cells/well, and allowed to incubate overnight. Compound at various concentrations was added the following morning and allowed to incubate on cells for 1 h. Then, NGF was added at a concentration sufficient to elicit ˜80% of a maximal response and allowed to incubate for 3 h at ambient temperature. DiscoverX PathHunter detection reagent was then added and the plate was further incubated for 1 h in the dark. The plate was then read via luminescence on the Perkin Elmer Envision.

human TrkA receptor, sequence (P04629 33-796): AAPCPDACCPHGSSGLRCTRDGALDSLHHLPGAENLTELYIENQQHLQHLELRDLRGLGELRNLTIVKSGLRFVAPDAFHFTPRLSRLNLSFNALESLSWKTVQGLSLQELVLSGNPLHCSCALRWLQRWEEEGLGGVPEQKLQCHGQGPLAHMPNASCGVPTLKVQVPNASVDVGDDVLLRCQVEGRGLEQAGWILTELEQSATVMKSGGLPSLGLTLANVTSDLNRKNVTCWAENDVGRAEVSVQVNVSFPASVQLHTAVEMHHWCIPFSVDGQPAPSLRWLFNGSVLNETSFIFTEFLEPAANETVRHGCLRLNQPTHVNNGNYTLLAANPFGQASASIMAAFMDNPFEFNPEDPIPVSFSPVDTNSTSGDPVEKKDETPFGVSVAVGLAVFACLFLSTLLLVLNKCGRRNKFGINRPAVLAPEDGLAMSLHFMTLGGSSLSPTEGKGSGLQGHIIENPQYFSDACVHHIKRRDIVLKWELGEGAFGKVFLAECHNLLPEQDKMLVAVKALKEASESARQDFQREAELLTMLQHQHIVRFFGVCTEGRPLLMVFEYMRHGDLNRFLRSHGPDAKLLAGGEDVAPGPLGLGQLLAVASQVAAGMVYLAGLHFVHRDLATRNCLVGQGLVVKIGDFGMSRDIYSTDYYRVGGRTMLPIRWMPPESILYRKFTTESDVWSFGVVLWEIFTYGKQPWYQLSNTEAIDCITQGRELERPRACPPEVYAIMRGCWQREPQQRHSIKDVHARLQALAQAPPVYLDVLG

Row | SMILES | IC50 [nM]
1 | Cn1ccc(-c2cc(C(=O)Nc3cnc(C(C)(C)C(N)=O)nc3-c3ccccc3)c(F)cc2C(F)(F)F)n1 [Example 122, N-(2-(1-amino-2-methyl-1-oxopropan-2-yl)-4-phenylpyrimidin-5-yl)-2-fluoro-5-(1-methyl-1H-pyrazol-3-yl)-4-(trifluoromethyl)benzamide] | 18
2 | NC(=O)c1cnc(-c2ccccc2)c(NC(=O)c2cc(-c3ncccn3)c(C(F)(F)F)cc2F)c1 [Example 91, 5-(2-fluoro-5-(pyrimidin-2-yl)-4-(trifluoromethyl)benzamido)-6-phenylnicotinamide] | 11
3 | Cn1ccc(-c2cc(C(=O)Nc3cnc(CN)nc3-c3ccccc3)ccc2C(F)(F)F)n1 [Example 42, N-(2-(Aminomethyl)-4-phenylpyrimidin-5-yl)-3-(1-methyl-1H-pyrazol-3-yl)-4-(trifluoromethyl)benzamide] | 21
4 | Cc1cc(-c2ccccc2)c(NC(=O)c2ccc(OC(F)(F)F)c(-c3ccn(C)n3)c2)cn1 [Example 3, 3-(1-Methyl-1H-pyrazol-3-yl)-N-(6-methyl-4-phenylpyridin-3-yl)-4-(trifluoromethoxy)benzamide] | 54
5 | Cn1ccc(-c2cc(C(=O)Nc3cnc4c(c3-c3ccccc3)CN(C(=O)CO)CC4)ccc2C(F)(F)F)n1 [Example 160, N-(6-(2-hydroxyacetyl)-4-phenyl-5,6,7,8-tetrahydro-1,6-naphthyridin-3-yl)-3-(1-methyl-1H-pyrazol-3-yl)-4-(trifluoromethyl)benzamide] | 4.7
6 | NC(=O)Cc1ccc(NC(=O)c2cc(-c3ccccn3)c(C(F)(F)F)cc2F)c(-c2ccccc2)n1 [Example 124, N-(6-(2-amino-2-oxoethyl)-2-phenylpyridin-3-yl)-2-fluoro-5-(pyridin-2-yl)-4-(trifluoromethyl)benzamide] | 8.8
7 | C[C@H](O)C(=O)NCc1ncc(NC(=O)c2cc(-c3ccn(C)n3)c(C(F)(F)F)cc2F)c(-c2ccccc2)n1 [Example 48] | 1.1
8 | CC(=O)N1CCc2nc(-c3ccccc3)c(NC(=O)c3ccc(C(F)(F)F)c(-c4ncccn4)c3)cc2C1 [Example 147, N-(6-acetyl-2-phenyl-5,6,7,8-tetrahydro-1,6-naphthyridin-3-yl)-3-(pyrimidin-2-yl)-4-(trifluoromethyl)benzamide] | 14
9 | O=C(Nc1cc(Cc2cnco2)cnc1-c1ccccc1)c1cc(-c2ncccn2)c(C(F)(F)F)cc1F [Example 204, 2-fluoro-N-(5-(oxazol-5-ylmethyl)-2-phenylpyridin-3-yl)-5-(pyrimidin-2-yl)-4-(trifluoromethyl)benzamide] | 8.3
10 | Cn1ccc(-c2cc(C(=O)Nc3cnc(CN4C(=O)COC4=O)nc3-c3ccccc3)c(F)cc2C(F)(F)F)n1 [Example 97, N-(2-((2,4-dioxooxazolidin-3-yl)methyl)-4-phenylpyrimidin-5-yl)-2-fluoro-5-(1-methyl-1H-pyrazol-3-yl)-4-(trifluoromethyl)benzamide] | 0.25
11 | CS(=O)(=O)N1CCc2nc(-c3ccccc3)c(NC(=O)c3cc(-c4ncccn4)c(C(F)(F)F)cc3F)cc2C1 [Example 149, 2-fluoro-N-(6-(methylsulfonyl)-2-phenyl-5,6,7,8-tetrahydro-1,6-naphthyridin-3-yl)-5-(pyrimidin-2-yl)-4-(trifluoromethyl)benzamide] | 11
12 | O=C(NCc1cccnc1)c1cnc(-c2ccccc2)c(NC(=O)c2cc(-c3ncccn3)c(C(F)(F)F)cc2F)c1 [Example 92, 5-(2-fluoro-5-(pyrimidin-2-yl)-4-(trifluoromethyl)benzamido)-6-phenyl-N-(pyridin-3-ylmethyl)nicotinamide] | 2.2
13 | Cn1ccc(-c2cc(C(=O)Nc3cnc(CC#N)nc3-c3ccccc3)c(F)cc2C(F)(F)F)n1 [Example 34, N-(2-(cyanomethyl)-4-phenylpyrimidin-5-yl)-2-fluoro-5-(1-methyl-1H-pyrazol-3-yl)-4-(trifluoromethyl)benzamide] | 0.69
14 | NC(=O)N1CCN(c2cnc(-c3ccccc3)c(NC(=O)c3cc(-c4ncccn4)c(C(F)(F)F)cc3F)c2)CC1 [Example 177, 4-(5-(2-fluoro-5-(pyrimidin-2-yl)-4-(trifluoromethyl)benzamido)-6-phenylpyridin-3-yl)piperazine-1-carboxamide] | 18
15 | Cc1cc(-c2nc(C)ncc2NC(=O)c2ccc(C(F)(F)F)c(-c3nc(C)cs3)c2)[nH]n1 [Example 18, N-[2-methyl-4-(3-methyl-1H-pyrazol-5-yl)pyrimidin-5-yl]-3-(4-methyl-1,3-thiazol-2-yl)-4-(trifluoromethyl)benzamide] | 330
16 | Cn1ccc(-c2cc(C(=O)Nc3cnc(CNC(=O)CO)nc3-c3ccccc3)c(F)cc2C(F)(F)F)n1 [Example 52, 2-fluoro-N-(2-((2-hydroxyacetamido)methyl)-4-phenylpyrimidin-5-yl)-5-(1-methyl-1H-pyrazol-3-yl)-4-(trifluoromethyl)benzamide] | 1.6

Row | SMILES | IC50 [nM]
17 | Cn1ccc(-c2cc(C(=O)Nc3cnc(CNC(=O)[C@@H]4COCCN4)nc3-c3ccccc3)c(F)cc2C(F)(F)F)n1 [Example 74, (S)-N-((5-(2-fluoro-5-(1-methyl-1H-pyrazol-3-yl)-4-(trifluoromethyl)benzamido)-4-phenylpyrimidin-2-yl)methyl)morpholine-3-carboxamide] | 2
18 | C[C@@H](CO)NC(=O)c1cnc(-c2ccccc2)c(NC(=O)c2cc(-c3ccn(C)n3)c(C(F)(F)F)cc2F)c1 [Example 85, (S)-5-(2-fluoro-5-(1-methyl-1H-pyrazol-3-yl)-4-(trifluoromethyl)benzamido)-N-(1-hydroxypropan-2-yl)-6-phenylnicotinamide] | 0.58
19 | O=C(Nc1ccccc1-c1ccc(F)cc1)c1ccc(C(F)(F)F)cc1F [Example 6, 2-fluoro-N-(4′-fluorobiphenyl-2-yl)-4-(trifluoromethyl)benzamide] | 4900
20 | O=C(Nc1cc(-c2ccc(CO)cn2)cnc1-c1ccccc1)c1cc(-c2ncccn2)c(C(F)(F)F)cc1F [Example 168, 2-fluoro-N-(5-(hydroxymethyl)-6′-phenyl-[2,3′-bipyridin]-5′-yl)-5-(pyrimidin-2-yl)-4-(trifluoromethyl)benzamide] | 0.68
21 | Cn1ccc(-c2cc(C(=O)Nc3cc(C4CCC(=O)N4)cnc3-c3ccccc3)c(F)cc2C(F)(F)F)n1 (single isomer, unassigned) [Example 181, (R or S)-2-Fluoro-5-(1-methyl-1H-pyrazol-3-yl)-N-(5-(5-oxopyrrolidin-2-yl)-2-phenylpyridin-3-yl)-4-(trifluoromethyl)benzamide] | 3.5
22 | NC(=O)c1ncc(-c2cnc(-c3ccccc3)c(NC(=O)c3cc(-c4ncccn4)c(C(F)(F)F)cc3F)c2)cn1 [Example 175, 5-(5-(2-fluoro-5-(pyrimidin-2-yl)-4-(trifluoromethyl)benzamido)-6-phenylpyridin-3-yl)pyrimidine-2-carboxamide] | 12.4
23 | Cn1ccc(-c2cc(C(=O)Nc3ccc(CNC(=O)C(O)CO)nc3-c3ccccc3)c(F)cc2C(F)(F)F)n1 (single isomer, unassigned) [Example 62, (S or R)-N-(6-((2,3-dihydroxypropanamido)methyl)-2-phenylpyridin-3-yl)-2-fluoro-5-(1-methyl-1H-pyrazol-3-yl)-4-(trifluoromethyl)benzamide] | 0.79
24 | NC(=O)c1cnc(-c2cnc(-c3ccccc3)c(NC(=O)c3cc(-c4ncccn4)c(C(F)(F)F)cc3F)c2)nc1 [Example 169, 2-(5-(2-fluoro-5-(pyrimidin-2-yl)-4-(trifluoromethyl)benzamido)-6-phenylpyridin-3-yl)pyrimidine-5-carboxamide] | 0.59
25 | CC(=O)NCc1ncc(NC(=O)c2cc(-c3cc[nH]n3)c(C(F)(F)F)cc2F)c(-c2ccccc2)n1 [Example 54, N-(2-(acetamidomethyl)-4-phenylpyrimidin-5-yl)-2-fluoro-5-(1H-pyrazol-3-yl)-4-(trifluoromethyl)benzamide] | 9.3
26 | Cc1cc(C)n(-c2cc(C(=O)Nc3cnc(C)nc3-c3ccccc3)ccc2F)n1 [Example 13, 3-(3,5-dimethyl-1H-pyrazol-1-yl)-4-fluoro-N-(2-methyl-4-phenylpyrimidin-5-yl)benzamide] | 910
27 | Cn1ccc(-c2cc(C(=O)Nc3cnc(CN4CCOC4=O)nc3-c3ccccc3)c(F)cc2C(F)(F)F)n1 (single isomer, unassigned) [Example 218] | 0.14
28 | O=C(Nc1cc(Oc2ccccn2)cnc1-c1ccccc1)c1cc(-c2ncccn2)c(C(F)(F)F)cc1F [Example 167, 2-fluoro-N-(2-phenyl-5-(pyridin-2-yloxy)pyridin-3-yl)-5-(pyrimidin-2-yl)-4-(trifluoromethyl)benzamide] | 24
29 | Cn1ccc(-c2cc(C(=O)Nc3cnc(CC(N)=O)nc3-c3ccccc3)ccc2C(F)(F)F)n1 [Example 116, N-(2-(2-amino-2-oxoethyl)-4-phenylpyrimidin-5-yl)-3-(1-methyl-1H-pyrazol-3-yl)-4-(trifluoromethyl)benzamide] | 9.8
30 | Cn1ccc(-c2cc(C(=O)Nc3cnc(C4CCNC4=O)nc3-c3ccccc3)c(F)cc2C(F)(F)F)n1 (single isomer, unassigned) [Example 197, (R or S)-2-Fluoro-5-(1-methyl-1H-pyrazol-3-yl)-N-(2-(2-oxopyrrolidin-3-yl)-4-phenylpyrimidin-5-yl)-4-(trifluoromethyl)benzamide] | 3.7
31 | O=C(Nc1cc2c(nc1-c1ccccc1)CCNC2)c1cc(-c2ccccn2)c(C(F)(F)F)cc1F [Example 146, 2-fluoro-N-(2-phenyl-5,6,7,8-tetrahydro-1,6-naphthyridin-3-yl)-5-(pyridin-2-yl)-4-(trifluoromethyl)benzamide] | 13
32 | Cn1ccc(-c2cc(C(=O)Nc3cc4c(nc3-c3ccccc3)CCNC4)c(F)cc2C(F)(F)F)n1 [Example 145, 2-fluoro-5-(1-methyl-1H-pyrazol-3-yl)-N-(2-phenyl-5,6,7,8-tetrahydro-1,6-naphthyridin-3-yl)-4-(trifluoromethyl)benzamide] | 2.9
